Reference: US11161825B2, “4-oxo-2,3,4,5-tetrahydro-1H-1,5-benzodiazepine-7-carboxamides” (Bayer Aktiengesellschaft, priority 2017, dated 2021)
pIC50: −log10 of the molar value.

How the values were obtained:
[1] = target: T1, untagged full length SMYD3 (Homo sapiens, UniProt Q9H7B4); experiment: Thermal Shift Assay; assay type: binding; settings: protein 1.5-2.0 μM, 5× SYPRO Orange, scans 25° C. to 80° C.; control 4% DMSO
T1 construct: As protein untagged full length SMYD3 was used
T1 sequence (Q9H7B4 1-428): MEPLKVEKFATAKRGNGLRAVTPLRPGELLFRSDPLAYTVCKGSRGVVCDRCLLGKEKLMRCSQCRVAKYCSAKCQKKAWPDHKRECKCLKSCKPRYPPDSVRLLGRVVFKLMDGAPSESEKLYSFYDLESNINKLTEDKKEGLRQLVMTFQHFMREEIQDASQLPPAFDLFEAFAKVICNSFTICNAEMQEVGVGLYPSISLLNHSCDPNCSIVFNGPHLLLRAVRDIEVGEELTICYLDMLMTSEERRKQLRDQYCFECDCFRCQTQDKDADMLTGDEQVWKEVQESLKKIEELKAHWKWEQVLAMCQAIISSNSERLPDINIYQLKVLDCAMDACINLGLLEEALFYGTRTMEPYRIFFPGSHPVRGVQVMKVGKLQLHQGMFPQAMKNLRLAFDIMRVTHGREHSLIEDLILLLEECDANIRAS
Protocol: Thermal Shift Assay Thermal melting experiments were performed with a ViiA™ Real-Time PCR machine (Thermo Fisher Scientific) in 384-well microliter plate with a final volume of 5 μL. Melting curves were obtained at a protein concentration of 1.5-2.0 μM and 5× SYPRO Orange (Invitrogen) using buffer containing 20 mM Tris pH7.0; 150 mM NaCl; 1.0 mM DTT. As protein untagged full length SMYD3 was used. […] As control 4% DMSO was used. Scans were measured from 25° C. to 80° C. at a scanning rate of 0.1° C./sec. All TSA data were analyzed by using Genedata Assay Analyzer.

[2] = target: T2, SMYD3 (Homo sapiens, UniProt Q9H7B4); experiment: SMYD3 Scintillation Proximity Assay (SPA), methylation of MAP3K2 Peptide; assay type: biochemical; settings: SMYD3 full length enzyme 10 nM, 3H-SAM 125 nM, MAP3K2 Peptide 1 μM, 120 min at 22° C.
T2 construct: The SMYD3 full length enzyme was produced in-house by expression (with an N-terminal 6×His tag) in E. coli; 6xHis (N); made in house; host or cells: E. coli
T2 sequence (Q9H7B4 1-428): T1 sequence (Q9H7B4 1-428)
Protocol: SMYD3 Scintillation Proximity Assay (SPA)
The SMYD3 full length enzyme was produced in-house by expression (with an N-terminal 6×His tag) in E. coli and purification by affinity chromatography on a Ni-NTA Sepharose column followed by a size exclusion chromatography step on a Superdex 200 16/60 column (GE Healthcare).
To this end, 100-fold concentrated compound solutions (in DMSO) were previously prepared by serial dilution (1:3.4) of 2 mM stocks in a clear low volume 384-well source microtiter plate (Greiner Bio-One), from which 100 nl of compounds were transferred into a white low volume test microtiter plate from the same supplier. […] The resulting mixture (5 μl final volume) was shortly centrifuged (2 min., 1500 rpm) and incubated at 22° C. during 120 min. […] Plates containing the stopped reaction were sealed with transparent adhesive foil (Perkin Elmer), centrifuged (2 min., 1500 rpm), and further incubated overnight at 4° C. in order to allow the SPA signals to develop. Subsequently, the amount of product was evaluated by measuring the energy transfer from the […] emitted by the 3H-labeled substrate to the scintillator co-polymerized in the bead's matrix, using a TopCount NXT scintillation counter (Packard) with the standard instrument settings for this purpose. The resulting scintillation counts were taken as indicator for the amount of methylated peptide per well. […] IC50 values were calculated by fitting the normalized inhibition data to a 4-parameter logistic equation using the XLFit analysis software (IDBS).

Row | Thermal shift assay (° C.) [1] [°C] | pIC50 [2] | SMILES
1 | 2.53 | 4.91 | CCCCNC(=O)c1ccc2c(c1)NC(=O)CC(C)N2C(=O)c1ccccc1F (racemic) [Example 53, N-butyl-1-(2-fluorobenzoyl)-2-methyl-4-oxo-2,3,4,5-tetrahydro-1H-1,5-benzodiazepine-7-carboxamide]
2 | 9.50 | 7.65 | CC1C(=O)Nc2cc(C(=O)NCCC3CCC3)ccc2N(C(=O)N2CCC(N)CC2)C1C (single isomer, unassigned) [Example 22, 1-[(4-aminopiperidin-1-yl)carbonyl]-N-(2-cyclobutylethyl)-2,3-dimethyl-4-oxo-2,3,4,5-tetrahydro-1H-1,5-benzodiazepine-7-carboxamide]
3 | 6.08 | 5.90 | C[C@H]1CC(=O)Nc2cc(C(=O)NCCC3CC3)ccc2N1C(=O)N1CCN(CCO)CC1 [Example 26, (2S)—N-(2-cyclopropylethyl)-1-{[4-(2-hydroxyethyl)piperazin-1-yl]carbonyl}-2-methyl-4-oxo-2,3,4,5-tetrahydro-1H-1,5-benzodiazepine-7-carboxamide]
4 | 2.90 | < 4.70 | Cc1nocc1C(=O)N1c2ccc(C(=O)NCCC3CC3)cc2NC(=O)CC1C (racemic) [Example 5, N-(2-cyclopropylethyl)-2-methyl-1-[(3-methyl-1,2-oxazol-4-yl)carbonyl]-4-oxo-2,3,4,5-tetrahydro-1H-1,5-benzodiazepine-7-carboxamide]
5 | 3.71 | 5.34 | Cc1nocc1C(=O)N1c2ccc(C(=O)NCCC3CCC3)cc2NC(=O)C(C)C1C (single isomer, unassigned) [Example 13, N-(2-cyclobutylethyl)-2,3-dimethyl-1-[(3-methyl-1,2-oxazol-4-yl)carbonyl]-4-oxo-2,3,4,5-tetrahydro-1H-1,5-benzodiazepine-7-carboxamide]
6 | – | 5.60 | C[C@H]1CC(=O)Nc2cc(C(=O)N(C)CCC3CC3)ccc2N1C(=O)N1CC2CC2C1 (stereo partly drawn) [Example 54, (2S)-1-(3-azabicyclo[3.1.0]hexane-3-carbonyl)-N-(2-cyclopropylethyl)-N,2-dimethyl-4-oxo-2,3,4,5-tetrahydro-1H-1,5-benzodiazepine-7-carboxamide]
7 | 6.12 | 5.64 | C[C@H]1CC(=O)Nc2cc(C(=O)NCCC3CC3)ccc2N1C(=O)N1CCC(F)(F)CC1 [Example 25, (2S)—N-(2-cyclopropylethyl)-1-[(4,4-difluoropiperidin-1-yl)carbonyl]-2-methyl-4-oxo-2,3,4,5-tetrahydro-1H-1,5-benzodiazepine-7-carboxamide]
8 | 5.69 | 6.10 | C[C@H]1CC(=O)Nc2cc(C(=O)NCCC3CC3)ccc2N1C(=O)N1CCN(CC(F)(F)F)CC1 [Example 30, (2S)—N-(2-cyclopropylethyl)-2-methyl-4-oxo-1-{[4-(2,2,2-trifluoroethyl)piperazin-1-yl]carbonyl}-2,3,4,5-tetrahydro-1H-1,5-benzodiazepine-7-carboxamide]
9 | 7.22 | 6.58 | C[C@H]1CC(=O)Nc2cc(C(=O)NCCC3CC3)ccc2N1C(=O)N1CCNCC1 [Example 41, (2S)—N-(2-cyclopropylethyl)-2-methyl-4-oxo-1-(piperazin-1-ylcarbonyl)-2,3,4,5-tetrahydro-1H-1,5-benzodiazepine-7-carboxamide]
10 | 1.82 | < 4.70 | Cc1nocc1C(=O)N1c2ccc(C(=O)NCCC3CC3)cc2NC(=O)C(C)C1C (single isomer, unassigned) [Example 9, N-(2-cyclopropylethyl)-2,3-dimethyl-1-[(3-methyl-1,2-oxazol-4-yl)carbonyl]-4-oxo-2,3,4,5-tetrahydro-1H-1,5-benzodiazepine-7-carboxamide]
11 | 9.88 | 7.23 | C[C@H]1CC(=O)Nc2cc(C(=O)NCCC3CC3)ccc2N1C(=O)N1CC2CC2C1 (stereo partly drawn) [Example 23, (2S)-1-(3-azabicyclo[3.1.0]hex-3-ylcarbonyl)-N-(2-cyclopropylethyl)-2-methyl-4-oxo-2,3,4,5-tetrahydro-1H-1,5-benzodiazepine-7-carboxamide]
12 | 2.83 | 4.89 | Cc1nocc1C(=O)N1c2ccc(C(=O)NCCC3CCC3)cc2NC(=O)CC1C (racemic) [Example 6, N-(2-cyclobutylethyl)-2-methyl-1-[(3-methyl-1,2-oxazol-4-yl)carbonyl]-4-oxo-2,3,4,5-tetrahydro-1H-1,5-benzodiazepine-7-carboxamide]
13 | 7.25 | 6.23 | C[C@H]1CC(=O)Nc2cc(C(=O)NCCC3CC3)ccc2N1C(=O)N1CC[C@@H](N)C1.Cl [Example 39, (2S)-1-{[(3R)-3-aminopyrrolidin-1-yl]carbonyl}-N-(2-cyclopropylethyl)-2-methyl-4-oxo-2,3,4,5-tetrahydro-1H-1,5-benzodiazepine-7-carboxamide hydrochloride (1:1)]
14 | 5.21 | 5.90 | CC1C(=O)Nc2cc(C(=O)NCCC3CC3)ccc2N(C(=O)c2ccccc2)C1C (mixture of isomers) [Example 2, 1-benzoyl-N-(2-cyclopropylethyl)-2,3-dimethyl-4-oxo-2,3,4,5-tetrahydro-1H-1,5-benzodiazepine-7-carboxamide]
15 | 1.15 | < 4.70 | Cc1nocc1C(=O)N1c2ccc(C(=O)NCCC3CCC3)cc2NC(=O)C(C)C1C (single isomer, unassigned) [Example 14, N-(2-cyclobutylethyl)-2,3-dimethyl-1-[(3-methyl-1,2-oxazol-4-yl)carbonyl]-4-oxo-2,3,4,5-tetrahydro-1H-1,5-benzodiazepine-7-carboxamide]
16 | 9.35 | 7.27 | CC1C(=O)Nc2cc(C(=O)NCCC3CCC3)ccc2N(C(=O)N2CCC(N)CC2)C1C (single isomer, unassigned) [Example 21, 1-[(4-aminopiperidin-1-yl)carbonyl]-N-(2-cyclobutylethyl)-2,3-dimethyl-4-oxo-2,3,4,5-tetrahydro-1H-1,5-benzodiazepine-7-carboxamide]
17 | 7.49 | 6.32 | C[C@H]1CC(=O)Nc2cc(C(=O)NCCC3CC3)ccc2N1C(=O)NC1CCNCC1 [Example 43, (2S)—N^7-(2-cyclopropylethyl)-2-methyl-4-oxo-N^1-(piperidin-4-yl)-2,3,4,5-tetrahydro-1H-1,5-benzodiazepine-1,7-dicarboxamide]
18 | – | < 4.52 | C[C@@H]1CC(=O)Nc2cc(C(=O)N(C)CCC3CC3)ccc2N1C(=O)N1CC2CC2C1 (stereo partly drawn) [Example 56, (2R)-1-(3-azabicyclo[3.1.0]hexane-3-carbonyl)-N-(2-cyclopropylethyl)-N,2-dimethyl-4-oxo-2,3,4,5-tetrahydro-1H-1,5-benzodiazepine-7-carboxamide]
19 | 1.43 | – | CCCNC(=O)c1ccc2c(c1)NC(=O)CC(C)N2C(=O)c1cccs1 (racemic) [Example 49, 2-methyl-4-oxo-N-propyl-1-(2-thienylcarbonyl)-2,3,4,5-tetrahydro-1H-1,5-benzodiazepine-7-carboxamide]
20 | – | 4.46 | CCCCNC(=O)c1ccc2c(c1)NC(=O)CC(C)N2C(=O)C1CC1 (racemic) [Example 50, N-butyl-1-(cyclopropylcarbonyl)-2-methyl-4-oxo-2,3,4,5-tetrahydro-1H-1,5-benzodiazepine-7-carboxamide]
21 | – | 5.58 | C[C@@H]1CC(=O)Nc2cc(C(=O)NCCC3CC3)ccc2N1C(=O)N1CC2CC2C1 (stereo partly drawn) [Example 55, (2R)-1-(3-azabicyclo[3.1.0]hexane-3-carbonyl)-N-(2-cyclopropylethyl)-2-methyl-4-oxo-2,3,4,5-tetrahydro-1H-1,5-benzodiazepine-7-carboxamide]
